Counter-ions that a name gives are not always drawn. Like-named read-outs stand apart in the source and are kept apart here. Values belong to the compound of their own block, whether it stands above or below them.
Tests used:
hA3AR [1] = biological target: T1, hA3AR (Homo sapiens (Human), UniProt P0DMS8); assay: FCM competitive binding in whole CHO cells using MRS5449 as tracer; details: whole CHO cells expressing hA3AR; 5 nM MRS5449 tracer; 90 min at 37° C.
Description: Total binding was measured in the absence of the competitor.
(§1) At the end of each time interval, the medium was removed and cells were washed three times with ice-cold DPBS. After washing, 1 ml 0.2% EDTA solution was added to each well, and cells were incubated at 37° C. for 7 min. Following cell detachment, 1 ml medium was added to each well to neutralize the EDTA. The cell suspensions were transferred to polystyrene round-bottom BD Falcon tubes (BD, Franklin Lakes, N.J.) and centrifuged for 5 min at 23° C. and 400×g. After centrifugation, the supernatant was discarded, and cells were washed with 3 ml PBS and centrifuged again at 23° C. and 400×g for 5 min. After discarding the supernatant, cells were suspended in 0.5 ml PBS and analyzed by FCM.
The intensity of fluorescence emission of each sample was measured by using FCM. […] Samples were maintained in the dark during the analysis to avoid photobleaching. MFIs were obtained in the FL-1 channel in log mode. Ten thousand events were analyzed per sample.
Data analysis was performed with the Prism 5 (GraphPad, San Diego Calif.) software. The mean autofluorescence of CHO cells was measured in the absence of the fluorescent ligand.

hA3AR [2] = biological target: T1, hA3AR; details: Table 2; cell membrane preparations using [125I]-AB-MECA; reported literature values; read-out: hA3AR radioligand binding, Ki; cited from earlier work
A3AR = A3AR (Homo sapiens (Human), UniProt P0DMS8); assay: Cyclic AMP accumulation assay, antagonism of Cl-IB-MECA (Schild analysis); assay type: cell-based; details: inhibition of forskolin-stimulated cyclic AMP by Cl-IB-MECA in CHO cells expressing the A3AR
Chain of A3AR (P0DMS8 whole entry): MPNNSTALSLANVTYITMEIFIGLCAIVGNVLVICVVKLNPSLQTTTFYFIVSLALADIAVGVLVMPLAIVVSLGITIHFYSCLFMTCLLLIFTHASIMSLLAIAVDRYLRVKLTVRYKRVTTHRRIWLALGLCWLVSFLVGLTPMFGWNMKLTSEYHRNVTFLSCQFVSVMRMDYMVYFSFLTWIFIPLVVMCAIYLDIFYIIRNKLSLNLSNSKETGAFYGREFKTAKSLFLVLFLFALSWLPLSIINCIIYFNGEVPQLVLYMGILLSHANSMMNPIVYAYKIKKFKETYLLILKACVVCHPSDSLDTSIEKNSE
Description: CHO cells stably expressing the hA3AR were seeded in 24-well plates and incubated at 37° C. overnight. The medium was removed the following day and replaced with DMEM containing 50 mM HEPES, 10 μM rolipram, 3 units/ml adenosine deaminase (Worthington Biochemical Corp., Lakewood, N.J.), and increasing concentrations of agonists and incubated for […]. Forskolin (10 μM) was added and incubated for an additional 15 min. The medium was removed, and the cells were lysed with 200 μL of 0.1 M HCl. 100 μl of the HCl solution was used in the Sigma Direct cAMP Enzyme Immunoassay following the instructions provided with the kit. The OD values were measured with a SpectraMax M5 Microplate reader (Molecular Devices, Sunnyvale, Calif.) at 405 nm.

hA3AR [3] = biological target: T1, hA3AR; assay: Fluorescent ligand binding by FCM in intact CHO cells expressing the hA3AR (preliminary, saturation, kinetics)
Description: In preliminary binding experiments of compounds 1-6 and MRS5449 were incubated with CHO cells expressing the hA3AR for 1 h at 37° C. in an atmosphere containing 5% CO2. The concentrations used were incubated with 1.5 μM 1, 5 μM 2, 1.5 μM 3, 10 μM 4, 20 μM 5, 15 μM 6, or 10 nM MRS5449. For further binding experiments with MRS5449, control CHO cells (CHO cells without heterologous receptor expression) and CHO cells expressing hA3AR were incubated with 10 nM MRS5449 for 3 h.
In saturation binding experiments, CHO cells expressing the hA3AR were incubated with concentrations of MRS5449 ranging from 2.5 nM to 250 nM for 1 h. To study binding kinetics of MRS5449, CHO cells expressing the hA3AR were incubated with 10 nM MRS5449 for different time intervals from 5 min to 3 h. The association and dissociation rate was measured as follows: 10 nM MRS5449 was added to CHO cells expressing the A3AR and measured total binding at different time intervals. After 90 min, dissociation was initiated by adding 10 μM of non-fluorescent A3AR antagonist MRS1220 and then measured the dissociation at different time intervals.
as §1
The mean fluorescence intensity (MFI) values of the standard particles were recorded under optimized instrument setting and converted into MESF values using the QuickCal program v. 2.3 (Bangs Laboratories, Inc., Fishers, Ind.). MFIs of receptor-bound fluorescent small molecules in this study were measured under exactly the same conditions and the assigned MESF values were extrapolated from the calibration curve.
(§2) The intensity of fluorescence emission of each sample was measured by using FCM. Cell suspensions were vortexed briefly before analysis on a Becton and Dickinson FACSCalibur flow cytometer (BD, Franklin Lakes, N.J.) with excitation at 488 nm. Samples were maintained in the dark during the analysis to avoid photobleaching. MFIs were obtained in the FL-1 channel in log mode. Ten thousand events were analyzed per sample. Data were collected using Cell Quest Pro software (BD, Franklin Lakes, N.J.) and analyzed by Cyflogic v. 1.2.1 software (CyFlo, Ltd., Turku, Finland).
Data analysis was performed with the Prism 5 (GraphPad, San Diego Calif.) software. The mean autofluorescence of CHO cells was measured in the absence of the fluorescent ligand. The mean fluorescence in the presence of fluorescent ligand was corrected by subtracting this value; Wood, J C S, Curr Protoc Cytom 2009; 1.4.1-1.4.14.

A2AAR = A2AAR (Homo sapiens (Human), UniProt P29274); assay: FCM binding of fluorescent ligand to HEK cells expressing the A2AAR
Chain of A2AAR (P29274 whole entry): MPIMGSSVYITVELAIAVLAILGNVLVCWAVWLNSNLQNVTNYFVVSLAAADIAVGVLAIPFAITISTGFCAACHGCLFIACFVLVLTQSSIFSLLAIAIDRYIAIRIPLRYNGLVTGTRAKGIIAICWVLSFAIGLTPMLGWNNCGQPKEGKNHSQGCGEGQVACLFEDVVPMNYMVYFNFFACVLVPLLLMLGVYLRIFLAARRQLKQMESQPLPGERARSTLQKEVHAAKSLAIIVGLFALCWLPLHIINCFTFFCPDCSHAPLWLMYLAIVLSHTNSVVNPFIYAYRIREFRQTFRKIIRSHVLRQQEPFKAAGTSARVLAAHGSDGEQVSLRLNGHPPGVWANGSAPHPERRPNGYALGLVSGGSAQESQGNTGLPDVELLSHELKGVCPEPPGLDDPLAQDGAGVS
Description: (§3) Chinese hamster ovary (CHO) cells without heterologous AR expression were grown in DMEM/F12 (1:1) medium with 10% FBS, 2 mM L-glutamine, 50 U/ml penicillin/streptomycin. CHO cells expressing the A1 or A3 AR and HEK293 cells expressing the A2A AR were grown in the same medium but in the presence of 500 μg/ml hygromycin B and 800 μg/ml of G418, respectively. Cells, used for FCM analysis, were grown in 6-well plates (approximately 400,000 cells/well) and incubated at 37° C. for 24 h in the presence of 5% CO2. When confluency of the cells was reached 80% (approximately 10^6 cells/well), medium was replaced with fresh medium and MRS5449 was added in the presence or absence of competitive antagonists, and cells were processed for FCM.
as §2

hA3AR [4] = biological target: T1, hA3AR; assay: Radioligand membrane binding assay at hA3AR ([125I]I-AB-MECA)
Description: (§4) For cell cultures used in radioligand binding assays, after harvest and homogenization, the cells were centrifuged at 200×g for 10 min, and the pellet was re-suspended in 50 mM Tris-HCl buffer (pH 7.5), containing 10 mM MgCl2. The suspension was homogenized with an electric homogenizer for 10 s and was then re-centrifuged at 20,000×g for 20 min at 4° C. The resultant membrane pellets were resuspended in buffer in the presence of 3 units/ml adenosine deaminase, and the suspension was stored at −80° C. until the binding experiments. The protein concentration was measured using the Bradford assay. Radioligand membrane binding assays

A1AR = A1AR (Homo sapiens (Human), UniProt P30542); assay: FCM binding of fluorescent ligand to CHO cells expressing the A1AR
Chain of A1AR (P30542 whole entry): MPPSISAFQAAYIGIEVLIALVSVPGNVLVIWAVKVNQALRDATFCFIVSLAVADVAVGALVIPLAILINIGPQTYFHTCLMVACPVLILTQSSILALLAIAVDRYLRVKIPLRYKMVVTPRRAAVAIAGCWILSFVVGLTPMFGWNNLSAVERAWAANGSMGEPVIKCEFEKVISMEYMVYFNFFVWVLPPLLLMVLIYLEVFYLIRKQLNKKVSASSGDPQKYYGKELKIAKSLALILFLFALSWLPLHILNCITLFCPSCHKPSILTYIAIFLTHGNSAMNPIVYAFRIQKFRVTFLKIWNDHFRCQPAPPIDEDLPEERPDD
Description: as §3, §2

hA1 AR = hA1 AR (Homo sapiens (Human), UniProt P30542); assay: Radioligand membrane binding assay at hA1 AR ([3H]R-PIA); details: Table 1; CHO cells expressing hA1AR; agonist radioligand [3H]R-PIA; read-out: A1 Ki
Chain of hA1 AR (P30542 whole entry): as above
Description: as §4

hA2AAR = hA2AAR (Homo sapiens (Human), UniProt P29274); assay: Radioligand membrane binding assay at hA2A AR ([3H]CGS21680); details: Table 1; HEK293 cells expressing hA2AAR; [3H]CGS21680; read-out: A2A Ki
Chain of hA2AAR (P29274 whole entry): as the sequence (P29274 whole entry) above
Description: as §4

T1 sequence (P0DMS8 whole entry): as the sequence (P0DMS8 whole entry) above

- Ki (hA3AR [1]): 9.54 ± 2.2 nM
Compound: CCC1CN2C(=O)N(C)c3nc(-c4cc(Cl)cc(Cl)c4Cl)[nH]c3C2=N1 (centres unmarked) [PSB-10, 8-ethyl-1,4,7,8-tetrahydro-4-methyl-2-(2,3,5-trichlorophenyl)-5H-imidazo[2,1-i]purin-5-one monohydrochloride]
- Ki (hA3AR [2]): 0.441 nM

Compound: 2-(6-Amino-3-iminio-4,5-disulfonato-3H-xanthen-9-yl)-5-((6-(4-(4-((9-chloro-2-(furan-2-yl)-[1,2,4]triazolo[1,5-c]quinazolin-5-yl)amino)-4-oxobutyl)-1H-1,2,3-triazol-1-yl)hexyl)carbamoyl)benzoate [Compound 9]
- Kb (A3AR): 4.8 nM
- t1/2 for association (hA3AR [3]; 10 nM MRS5449, CHO cells expressing hA3AR): 53 min
- Kd determined through association and dissociation kinetic experiments (hA3AR [3]; 10 nM MRS5449, dissociation initiated after 90 min with 10 μM MRS1220): 6.65 ± 0.55 nM
- Nonspecific binding, % of total binding (hA3AR [3]; 10 nM MRS5449, with 10 μM MRS1220 or 10 μM Cl-IB-MECA or in control CHO cells): less than 1%
- Kd (hA3AR [3]; FCM saturation binding, […] to 250 nM, nonspecific with 10 μM MRS1220, read-out: Kd (equilibrium binding constant, saturation binding)): 5.15 ± 1.11 nM
- fluorescence emission (MFI) of cell-bound ligand (hA3AR [3]; preliminary FCM experiments, hA3AR CHO cells, 1 h at 37° C., concentration about two times Ki): sufficiently high MFI
- binding to HEK cells expressing the A2AAR compared with binding to the A3AR (expressed as 100%) (A2AAR): 0.5%
- Ki (hA3AR [4]; Table 1, CHO cells expressing hA3AR, [125I]I-AB-MECA, read-out: A3 Ki): 6.4 nM
- selectivity for the A3AR (hA3AR [4]; versus hA1 and hA2AARs, radioligand binding Ki): over 10 fold
- binding to CHO cells expressing the A1AR compared with binding to the A3AR (expressed as 100%) (A1AR): 0.3%
- Ki (hA1 AR): 87 nM
- Ki (hA2AAR): 73 nM

Reference: patent US9227979B2, “Fluorescent antagonists of the A3 adenosine receptor” (The United States of America, as represented by the …, priority 2012, dated 2016)
